Counter-ions that a name gives are not always drawn.
Test system: HSP27
Test: Inhibition of HSP27 production in heat-shocked human cancer cell lines (Western blotting)
Type: cell-based
Conditions: Western blot, 20 µM, control showed a single band
Protocol: The following various human cancer cell lines were cultured under 5% CO2, at 37 °C, except for the heat shock treatment period. The lung cancer cell line H69 (ATCC HTB 119), the gastric cancer cell line KATO III (ATCC HTB 103), the colon cancer cell line COLO 205 (ATCC CCL 222), and the prostate cancer cell line DU145 (ATCC HTB 81) were cultured in an RPMI1640 medium containing 10% inactivated fetal bovine serum (hereinafter referred to as FBS).
The uterine cancer cell line HeLa S3 (ATCC CCL 2.2) was cultured in an MEM medium containing 10% inactivated FBS.
The neuroblastoma cell line SK-N-MC (ATCC HTB 10) was cultured in an MEM medium containing non-essential amino acids (L-alanine = 8.9 mg/l, L-asparagine·H2O = 15.0 mg/l, L-aspartic acid = 13.3 mg/l, L-glutamic acid = 14.7 mg/l, glycine = 7.5 mg/l, L-proline = 11.5 mg/l and L-serine = 10.5 mg/l) and 10% inactivated FBS.
The berberine hydrochloride of the formula (III) (the final concentration = 20 µM: Matsuura Yakugyo) was added to each medium of the above human cancer cell lines 2 days after the inoculation. After the berberine hydrochloride treatment for 24 hours, a heat shock was applied at 45 °C for 15 minutes, and the cells were then cultured at 37 °C overnight. The control tests were carried out by performing the above procedures except that the berberine hydrochloride was not added.
The cells treated in the above (2) were homogenized, and the amounts of HSP27 produced were measured by the Western blotting method.
The cells treated in the above (2) were washed with phosphate buffered physiological saline [composition: KC1 = 0.2 g/l, KH2PO4 = 0.2 g/l, NaCl = 8 g/1, Na2HPO4 (anhydrous) = 1.15 g/l: hereinafter referred to as PBS(-): COSMO BIO CO. Catalogue No. 320-01], and 1 ml of lysis buffer [1.0% NP-40, 0.15 M sodium chloride, 50 mM Tris-HCl (pH 8.0), 5 mM-EDTA, 2 mM-N-ethylmaleimide, 2 mM phenylmethylsulfonyl fluoride, 2 µg/ml leupeptin, and 2 µg/ml pepstatin] was added. The whole was allowed to stand for 20 minutes on ice, and then centrifuged at 4 °C and 12000 rpm for 20 minutes. The resulting supernatant (10 µl) was added to 790 µl of PBS(-), and then 200 µl of a protein assay dye reagent solution (Dye Reagent Concentrate: Bio-Rad Laboratories, Catalogue No. 500-0006) was added. The whole was allowed to stand at room temperature for 5 minutes, and the absorbance at 595 nm was measured to determine the amounts of proteins.
For the SDS-polyacrylamide gel electrophoresis (SDS-PAGE) of the samples, the protein concentration of which were measured, aliquots containing the same amount of protein were loaded onto the gel. The SDS-PAGE was performed according to the Laemmli method (Laemmli, […]). After the electrophoresis, the blotting and then blocking were carried out. More particularly, the gel was brought into contact with a 0.45 µm nitrocellulose membrane (Schleicher & Schuell, Catalogue No. 401196) at room temperature and 100 V, using a protein-transferring apparatus (Trans-Blot Electrophoretic Transfer Cell: Bio-Rad), and blotting was carried out for 3 hours. The blotting buffer used was prepared by adding methyl alcohol to Tris-glycine buffer (pH 8.5) consisting of 0.025 M Tris and 0.192 M glycine (Tris Gly Running and Blotting Buffer; Enprotech, Mass., USA; Catalogue No. SA100034), so that the concentration of methyl alcohol became 20%. After blotting, the nitrocellulose membrane was incubated in a 10% skimmed milk-PBS(-) solution at room temperature for 30 minutes, to block non-specific bindings.
After blocking, the first antibody reaction was carried out on the nitrocellulose membrane, using a screener blotter (Sanplatec), and the anti-human-HSP27 mouse monoclonal antibody (StressGen, Victoria, B.C., Canada, Catalogue No. SPA-800). […]

Which “band of the molecular weight of approximately 27 kDa” value (shortened to “band”) (colon cancer cell line COLO 205) does the source give for `COc1ccc2cc3[n+](cc2c1OC)CCc1cc2c(cc1-3)OCO2` [berberine hydrochloride] here?
The value was “faint in comparison with the control tests”.

What about the “band” value (gastric cancer cell line KATO III) of the same compound?
The value was “faint in comparison with the control tests”.

What about the “band” value (lung cancer cell line H69) of the same compound?
The value was “no band of the molecular weight of approximately 27 kDa was detected”.

What about the “band” value (neuroblastoma cell line SK-N-MC) of the same compound?
Its value is “no band of the molecular weight of approximately 27 kDa was detected”.

What about the “band” value (prostate cancer cell line DU145) of the same compound?
Its value is “no band of the molecular weight of approximately 27 kDa was detected”.

And the “band” value (uterine cancer cell line HeLa S3)?
The value was “no band of the molecular weight of approximately 27 kDa was detected”.

Reference: patent publication EP0813872A1, “Berberine derivates for inhibiting hsp27 production” (Kureha Chemical Industry Co., Ltd., priority 1996, dated 1997)
